Values quoted from earlier work, collected in patent US11306114B2, “Process for separation, isolation and characterization of steviol glycosides” (Heartland Consumer Products, LLC, priority 2014, dated 2022).
Read-outs that look alike come from different tables or passages of the source.

How the values were obtained:
[1] = for Sweetness Intensity: relative to an equal weight of sucrose, data from Tanaka, Pure & Appl. Chem.
[2] = subjective relative ranking; data from Tanaka, Pure & Appl. Chem.
[3] = literature statements
[4] = carbonated beverages (Chang et al. 1983) / general statement

Molecule | times sweeter than sucrose ([1]; general statements in text, varies with temperature and viscosity of the carrier medium) | Sweetness Intensity [1] | Sweetness Quality [2] | taste attributes ([3]; listed as Rebaudioside A) | taste attributes ([3]; listed as rebaudioside A) | heat and pH stability [4] | taste attributes [3]
C=C1C[C@@]23CC[C@H]4[C@@](C)(CCC[C@@]4(C)C(=O)O[C@@H]4O[C@H](CO)[C@@H](O)[C@H](O)[C@H]4O)[C@@H]2CC[C@]1(O[C@@H]1O[C@H](CO)[C@@H](O)[C@H](O)[C@H]1O[C@@H]1O[C@@H](C)[C@H](O)[C@@H](O)[C@H]1O)C3 [dulcoside-A, dulcoside A] | about 30 times | 70 | −2 |  |  |  | 
C=C1C[C@@]23CC[C@H]4[C@@](C)(CCC[C@@]4(C)C(=O)O[C@@H]4O[C@H](CO)[C@@H](O)[C@H](O)[C@H]4O)[C@@H]2CC[C@]1(O[C@@H]1O[C@H](CO)[C@@H](O)[C@H](O[C@@H]2O[C@H](CO)[C@@H](O)[C@H](O)[C@H]2O)[C@H]1O[C@@H]1O[C@H](CO)[C@@H](O)[C@H](O)[C@H]1O)C3 [rebaudioside-A, rebaudioside A] |  | 250 | 2 | the least astringent, the least bitter, and the least persistent aftertaste | metallic and bitter notes | heat and pH stability | 
C=C1C[C@@]23CC[C@H]4[C@@](C)(CCC[C@@]4(C)C(=O)O[C@@H]4O[C@H](CO)[C@@H](O)[C@H](O)[C@H]4O[C@@H]4O[C@H](CO)[C@@H](O)[C@H](O)[C@H]4O)[C@@H]2CC[C@]1(O[C@@H]1O[C@H](CO)[C@@H](O)[C@H](O[C@@H]2O[C@H](CO)[C@@H](O)[C@H](O)[C@H]2O)[C@H]1O[C@@H]1O[C@H](CO)[C@@H](O)[C@H](O)[C@H]1O)C3 [rebaudioside-D, rebaudioside D] |  | 300 | 3 |  |  |  | 
C=C1C[C@@]23CC[C@H]4[C@@](C)(CCC[C@@]4(C)C(=O)O[C@@H]4O[C@H](CO)[C@@H](O)[C@H](O)[C@H]4O[C@@H]4O[C@H](CO)[C@@H](O)[C@H](O)[C@H]4O)[C@@H]2CC[C@]1(O[C@@H]1O[C@H](CO)[C@@H](O)[C@H](O)[C@H]1O[C@@H]1O[C@H](CO)[C@@H](O)[C@H](O)[C@H]1O)C3 [rebaudioside-E, rebaudioside E] |  | 200 | 1 |  |  |  | 
C=C1C[C@@]23CC[C@H]4[C@@](C)(CCC[C@@]4(C)C(=O)O[C@@H]4O[C@H](CO)[C@@H](O)[C@H](O)[C@H]4O)[C@@H]2CC[C@]1(O[C@@H]1O[C@H](CO)[C@@H](O)[C@H](O)[C@H]1O)C3 [rubusoside] |  | 115 | −2 |  |  |  | 
C=C1C[C@@]23CC[C@H]4[C@@](C)(CCC[C@@]4(C)C(=O)O)[C@@H]2CC[C@]1(O[C@@H]1O[C@H](CO)[C@@H](O)[C@H](O)[C@H]1O[C@@H]1O[C@H](CO)[C@@H](O)[C@H](O)[C@H]1O)C3 [steviolbioside] |  | 40 | −3 |  |  |  | 
C=C1C[C@@]23CC[C@H]4[C@@](C)(CCC[C@@]4(C)C(=O)O)[C@@H]2CC[C@]1(O[C@@H]1O[C@H](CO)[C@@H](O)[C@H](O)[C@H]1O)C3 [steviolmonoside] |  | 40 | −3 |  |  |  | 
C=C1C[C@@]23CC[C@H]4[C@@](C)(CCC[C@@]4(C)C(=O)O[C@@H]4O[C@H](CO)[C@@H](O)[C@H](O)[C@H]4O)[C@@H]2CC[C@]1(O[C@@H]1O[C@H](CO)[C@@H](O)[C@H](O)[C@H]1O[C@@H]1O[C@H](CO)[C@@H](O)[C@H](O)[C@H]1O)C3 [stevioside, 13-[(2-O-β-D-glucopyranosyl-α-D-glucopyranosyl)oxy]-kaur-16-en-18-oic acid β-D-glucopyranosyl ester] |  | 145 | 0 |  |  | heat and pH stability | metallic and bitter notes
rebaudioside B |  | 300 | 3 |  |  |  | 
rebaudioside C [rebaudioside-C] |  | 200 | −1 |  |  |  | 
